According to patent US20260108549A1, “MACROLIDE COMPOUND AND PREPARATION METHOD AND APPLICATION THEREOF” (INSTITUTE OF FEED RESEARCH, CHINESE ACADEMY OF AGRICULTURAL …, priority 2023, published 2026):
Values after ≈ are worked out from the molar mass of the structure shown.

Assays:
[1] = test system: Escherichia coli ATCC 8099; assay: Antibacterial activity, broth microdilution MIC; type: cell-based; conditions: for MIC: Escherichia coli, ATCC8099, broth microdilution, 37° C., 24 hours, working range 0.25-128 μg/mL (Gram-negative); for antibacterial effect compared with tylosin against Escherichia coli 8099: in vitro, comparison in words with positive control tylosin
Procedure: (§1) Test Example 1 Determination of the antibacterial activity of the compounds of the present invention The antibacterial activity of the compounds obtained in Examples 1-4 of the present invention were determined by using the broth microdilution method with tylosin as a positive control. A broth culture medium was added into a 96-well plate, a prepared compound solution was diluted two-fold serial dilution, and then inoculated with an appropriate amount of bacterial solution. After incubation for 24 hours, the minimum inhibitory concentration of the compound was observed. The culture medium used in the experiment was CAMHB broth, CAMHB+5% defibrillated sheep blood broth. The preserved bacteria strain was inoculated into a serum-supplemented medium and cultured at 37° C. for 16-18 hours. An appropriate amount of bacteria after the completion of subculture and saline were placed into a turbidimetric tube and calibrated to the McFarland standard with a McFarland turbidimeter. The bacterial suspension was diluted 10 times with saline to prepare test bacterial solutions of certain concentrations (5×10^5 to 5×10^6 cfu/mL) for later use. Tylosin and the compounds obtained in the examples were dissolved in methanol to the desired concentration of each compound (1.0 mg/mL), stored in sterilized brown vials, stoppered, and sealed for later use. The working concentration range against Gram-negative bacteria was 0.25 μg/mL to 128 μg/mL; and the working concentration range against Gram-positive bacteria was 0.098 μg/mL to 50 μg/mL. The 96-well plate micro double dilution method was used. […] Finally, the prepared bacterial solution (of a concentration of 5×10^5 to 5×10^6 cfu/mL) was added into the first well to the eleventh well, and the twelfth well was not added with the bacterial solution to serve as a blank control. The 96-well plate was placed in a 37° C. incubator, cultured in a static state for 24 hours to observe the bacterial growth in each well. The solution in the well that inhibited bacterial growth was transparent, and the solution in the well that could not inhibit bacterial growth was turbid. The concentration in the well with a transparent solution was selected to be the minimum inhibitory concentration (MIC) of the sample.

[2] = test system: Streptococcus pneumoniae ATCC 49169; assay: Antibacterial activity, broth microdilution MIC; type: cell-based; conditions: for MIC: Streptococcus pneumoniae, ATCC49169, broth microdilution, 37° C., 24 hours, working range 0.098-50 μg/mL (Gram-positive); for antibacterial effect compared with tylosin against Streptococcus pneumoniae ATCC 49169: in vitro, comparison in words with positive control tylosin
Procedure: as §1

SMILES	MIC [1]	MIC [2]	antibacterial effect compared with tylosin against Escherichia coli 8099 [1]	antibacterial effect compared with tylosin against Streptococcus pneumoniae ATCC 49169 [2]
CC[C@H]1OC(=O)C[C@@H](O)[C@H](C)[C@@H](O[C@@H]2O[C@H](C)[C@@H](O[C@H]3C[C@@](C)(O)[C@@H](O)[C@H](C)O3)[C@H](N(C)C)[C@H]2O)[C@@H](CC=O)C[C@@H](C)C(=O)/C=C/C(C)=C/[C@@H]1CO[C@@H]1O[C@H](C)[C@@H](O)[C@@H](OC)[C@H]1OC [Tylosin, reference compound]	128 µg/mL (≈ 140 µM)	0.781 µg/mL (≈ 0.853 µM)		
CC[C@H]1OC(=O)C[C@@H](O)[C@H](C)[C@@H](O[C@@H]2O[C@H](C)[C@@H](O[C@H]3C[C@@](C)(O)[C@@H](O)[C@H](C)O3)[C@H](N(C)C)[C@H]2O)[C@@H](CCN2CCC[C@H]2CO)C[C@@H](C)C(=O)/C=C/C(C)=C/[C@@H]1CO[C@@H]1O[C@H](C)[C@@H](O)[C@@H](OC)[C@H]1OC [Id, 20-((S)-2-hydroxymethyltetrahydropyrrolyl) tylosin]	128 µg/mL (≈ 128 µM)	0.781 µg/mL (≈ 0.78 µM)		
CC[C@H]1OC(=O)C[C@@H](O)[C@H](C)[C@@H](O[C@@H]2O[C@H](C)[C@@H](O[C@H]3C[C@@](C)(O)[C@@H](O)[C@H](C)O3)[C@H](N(C)C)[C@H]2O)[C@@H](CCN(CCO)CCO)C[C@@H](C)C(=O)/C=C/C(C)=C/[C@@H]1CO[C@@H]1O[C@H](C)[C@@H](O)[C@@H](OC)[C@H]1OC [Ib, 20-(bis(2-hydroxyethylamino)) tylosin]	128 µg/mL (≈ 127 µM)	0.781 µg/mL (≈ 0.777 µM)		
CC[C@H]1OC(=O)C[C@@H](O)[C@H](C)[C@@H](O[C@@H]2O[C@H](C)[C@@H](O[C@H]3C[C@@](C)(O)[C@@H](O)[C@H](C)O3)[C@H](N(C)C)[C@H]2O)[C@@H](CCN2CCC[C@@H]2CO)C[C@@H](C)C(=O)/C=C/C(C)=C/[C@@H]1CO[C@@H]1O[C@H](C)[C@@H](O)[C@@H](OC)[C@H]1OC [Ic, 20-((R)-2-hydroxymethyltetrahydropyrrolyl) tylosin]	64 µg/mL (≈ 63.9 µM)	0.195 µg/mL (≈ 0.195 µM)	superior antibacterial effect to tylosin	superior antibacterial effect to tylosin
CC[C@H]1OC(=O)C[C@@H](O)[C@H](C)[C@@H](O[C@@H]2O[C@H](C)[C@@H](O[C@H]3C[C@@](C)(O)[C@@H](O)[C@H](C)O3)[C@H](N(C)C)[C@H]2O)[C@@H](CCNCCCO)C[C@@H](C)C(=O)/C=C/C(C)=C/[C@@H]1CO[C@@H]1O[C@H](C)[C@@H](O)[C@@H](OC)[C@H]1OC [Ia, 20-(3-hydroxypropylamino) tylosin]	128 µg/mL (≈ 131 µM)	0.391 µg/mL (≈ 0.401 µM)	comparable antibacterial effect to tylosin	slightly better antibacterial effect than tylosin
